From PMC11542720, “Modelling of chromatographic and electrophoretic behaviour of imidazoline and alpha adrenergic receptors ligands under different acid-base conditions” (ADMET & DMPK, 2024)
Structures can show the parent of a compound that is named as a salt. Where two headings read alike, the source gives them in different places.

Assays:
[1] = Capillary electrophoresis, effective electrophoretic mobility (acetone as EOF marker); assay type: physicochemical; details: for µeff4.4 / µeff7.4 / µeff9.1: I = 25 mmol/L, 11 kV, 25 °C, three replicates; for µeff7.4: pH 7.4; for µeff9.1 / μeff9.1 (effective electrophoretic mobility): pH 9.1
Method: All experiments were performed using the SpectraPhoresis 500-capillary electrophoresis system (Spectra Physics Analytical, USA) with UV detector. Data were recorded and analyzed using ChromQuest software version 4.0 (Thermo Finnigan, USA).
The separations were performed with an uncoated fused capillary (total length 31.5 cm, 50 μm id, effective length 24 cm, Polymicro Technologies, USA) applying a voltage of 11 kV and at 25 °C. The samples were injected hydrodynamically and detection was performed in the 200-280 nm range. The new capillary was rinsed stepwise with 0.1 M NaOH (15 min), water (10 min) and a running buffer (10 min). Finally, a 10 min high voltage was applied through the background electrolyte-filled capillary to equalize the inner surface, stabilize the electroosmotic flow and ensure good reproducibility of injections from run to run. […] Between runs, the capillary was rinsed with the background electrolyte for 1 minute.
where Lt is the total length of the capillary (cm), Leff is the effective length of the capillary (cm), U is the applied voltage (V), tm is the migration time of the analyte (s) and teof is the migration time of the electroneutral EOF marker acetone (s). The calculated μeff values (μeff4.4, μeff7.4 and μeff9.1) were used as dependent variables in QSMR analysis.

[2] = RP-HPLC retention on XTerra RP18, methanol/buffer; extrapolated retention factor log kw and slope S; assay type: physicochemical; details: for log kw: intercept, extrapolated to 100 % buffer, methanol/buffer, 25 °C; for S (slope): slope of log k vs methanol volume fraction
Method: All measurements were performed at 25°C with a constant flow rate of 0.8 mL min^-1 and UV detection in the range of 200-280 nm. The injection volume was 20 μL. […] The retention factor k was calculated for each mobile phase composition according to Equation (1):
where tr is the retention time of the tested compound and t0 is the dead volume measured with KNO3 as a non-retentive marker. The values corresponding to 100 % of the buffered eluent (log kw) were determined by extrapolation according to Equation (2):
where log kw is the intercept, S is the slope of the regression line, and φ is the volume fraction of the organic modifier in the mobile phase.
The retention behaviour in HPLC system was monitored by calculating extrapolated retention factors log kw corresponding to pure buffer as mobile phase.

[3] = cited from earlier work
[4] = pH-spectrophotometric, ref 14 (Supplement reference list)
[5] = pH spectrophotometric, ref 13 (Supplement reference list)
[6] = HPLC, ref 7 (Supplement reference list)

Compound | µeff4.4 ([1]; pH 4.4) | µeff7.4 [1] | µeff9.1 [1] | log kw ([2]; pH 4.4) | S (slope) ([2]; pH 4.4) | log kw ([2]; pH 7.4) | S (slope) ([2]; pH 7.4) | log kw ([2]; pH 9.1) | S (slope) ([2]; pH 9.1) | further results
COc1ccc2c(c1)[nH]c1c(C)nccc12 [Harmine, harmine hydrochloride] | 26.410 ± 0.068 10^-5 cm^2 V^-1 s^-1 | 13.636 ± 0.051 10^-5 cm^2 V^-1 s^-1 | 1.305 ± 0.124 10^-5 cm^2 V^-1 s^-1 | 2.15 ± 0.04 | -4.28 ± 0.11 | 2.88 ± 0.05 | -3.85 ± 0.09 | 2.95 ± 0.07 | -3.97 ± 0.12 | pKa experimental ([3]; spectrophotometric, ref 9 (Supplement reference list)): 7.45 (spectrophotometric) [9]
COc1nc(C)nc(Cl)c1N=C1NCCN1 [Moxonidine, moxonidine hydrochloride] | 22.669 ± 0.104 10^-5 cm^2 V^-1 s^-1 | 10.907 ± 0.078 10^-5 cm^2 V^-1 s^-1 | 0.000 ± 0.000 10^-5 cm^2 V^-1 s^-1 | 0.57 ± 0.03 | -3.21± 0.17 | 0.63 ± 0.03 | -2.36 ± 0.10 | 0.75 ± 0.04 | -2.31 ± 0.10 | μeff9.1 (effective electrophoretic mobility) [1]: zero; pKa experimental [3, 6]: 7.84
Brc1c(NC2=NCCN2)ccc2nccnc12 [Brimonidine, brimonidine hydrochloride] | 23.357 ± 0.043 10^-5 cm^2 V^-1 s^-1 | 13.247 ± 0.200 10^-5 cm^2 V^-1 s^-1 | 0.000 ± 0.000 10^-5 cm^2 V^-1 s^-1 | 0.99 ± 0.03 | -4.78 ± 0.21 | 1.08 ± 0.03 | -3.20 ± 0.12 | 1.26 ± 0.07 | -3.23 ± 0.19 | μeff9.1 (effective electrophoretic mobility) [1]: zero; pKa experimental ([3]; potentiometric, ref 2 (Supplement reference list)): 7.50
Cc1nccc2c1[nH]c1ccccc12 [Harman, harmane] | 28.192 ± 0.016 10^-5 cm^2 V^-1 s^-1 | 11.752 ± 0.034 10^-5 cm^2 V^-1 s^-1 | 0.000 ± 0.000 10^-5 cm^2 V^-1 s^-1 | 1.72 ± 0.06 | -3.74 ± 0.18 | 2.76 ± 0.05 | -3.70 ± 0.09 | 2.78 ± 0.06 | -3.75 ± 0.11 | μeff4.4 (effective electrophoretic mobility) ([1]; pH 4.4): 28.19 10^-5 cm^2 / V s; pKa experimental [3, 6]: 7.21
Cc1cc(C(C)(C)C)c(O)c(C)c1CC1=NCCN1 [Oxymetazoline, oxymetazoline hydrochloride] | 20.276 ± 0.040 10^-5 cm^2 V^-1 s^-1 | 19.061 ± 0.049 10^-5 cm^2 V^-1 s^-1 | 19.556 ± 0.076 10^-5 cm^2 V^-1 s^-1 | 2.33 ± 0.02 | -3.89 ± 0.04 | 2.33 ± 0.04 | -3.61 ± 0.10 | 2.60 ± 0.07 | -4.14 ± 0.16 | pKa experimental [3, 5]: 10.62

The next lines start with results.

µeff4.4 ([1]; pH 4.4) | µeff7.4 [1] | µeff9.1 [1] | log kw ([2]; pH 4.4) | S (slope) ([2]; pH 4.4) | log kw ([2]; pH 7.4) | S (slope) ([2]; pH 7.4) | log kw ([2]; pH 9.1) | S (slope) ([2]; pH 9.1) | Compound | further results
25.780 ± 0.006 10^-5 cm^2 V^-1 s^-1 | 21.650 ±0.195 10^-5 cm^2 V^-1 s^-1 | 8.661 ± 0.036 10^-5 cm^2 V^-1 s^-1 | 0.09 ± 0.02 | -2.53 ± 0.14 | 0.04 ± 0.01 | -2.62 ± 0.06 | 0.39 ± 0.02 | -2.00 ± 0.06 | CNC[C@H](O)c1cccc(O)c1 [Phenilephrine, Phenilephrine hydrochloride] | log kw ([2]; pH 4.4, listed as phenilephrine): 0.09; pKa experimental (first of two printed values) [3, 4]: 9.17; pKa experimental (second of two printed values) [3, 4]: 9.17 and 10.45 (pH-spectrophotometric) [14 ]
22.697 ± 0.017 10^-5 cm^2 V^-1 s^-1 | 9.204 ± 0.061 10^-5 cm^2 V^-1 s^-1 | 0.000 ± 0.000 10^-5 cm^2 V^-1 s^-1 | 2.94 ± 0.03 | -4.69 ± 0.06 | 3.85 ± 0.05 | -4.88 ± 0.08 | 3.95 ± 0.08 | -5.04 ± 0.15 | CN1CCN(C2=Nc3cc(Cl)ccc3Nc3ccccc32)CC1 [Clozapine, clozapine] | μeff9.1 (effective electrophoretic mobility) [1]: zero; pKa experimental ([3]; HPLC, ref 5 (Supplement reference list)): 7.719 ± 0.015
25.941 ± 0.038 10^-5 cm^2 V^-1 s^-1 | 24.180 ± 0.135 10^-5 cm^2 V^-1 s^-1 | 24.643 ± 0.049 10^-5 cm^2 V^-1 s^-1 | 1.52 ± 0.01 | -3.48 ± 0.04 | 1.52 ± 0.01 | -3.64 ± 0.05 | 1.76 ± 0.01 | -3.50 ± 0.03 | c1ccc2c(CC3=NCCN3)cccc2c1 [Naphazoline, naphazoline hydrochloride] | pKa experimental [3, 5]: 10.81
20.559 ± 0.034 10^-5 cm^2 V^-1 s^-1 | 18.696 ± 0.048 10^-5 cm^2 V^-1 s^-1 | 19.402 ± 0.148 10^-5 cm^2 V^-1 s^-1 | 2.90 ± 0.08 | -4.31 ± 0.14 | 2.58 ± 0.12 | -3.18 ± 0.20 | 3.09 ± 0.08 | -4.20 ± 0.14 | CNCCCC12CCC(c3ccccc31)c1ccccc12 [Maprotiline, maprotiline hydrochloride] | pKa experimental ([3]; potentiometric, ref 11 (Supplement reference list)): 10.45 ± 0.02
24.393 ± 0.067 10^-5 cm^2 V^-1 s^-1 | 22.988 ± 0.060 10^-5 cm^2 V^-1 s^-1 | 23.713 ± 0.031 10^-5 cm^2 V^-1 s^-1 | 1.55 ± 0.03 | -3.43 ± 0.07 | 1.51 ± 0.01 | -3.51 ± 0.06 | 1.74 ± 0.01 | -3.37 ± 0.03 | c1cc2c(c(NC3=NCCN3)c1)CCCC2 [Tramazoline, Tramazoline hydrochloride] | pKa experimental ([3]; pH titration, ref 4 (Supplement reference list)): 10.66 ± 0.05
26.969 ± 0.032 10^-5 cm^2 V^-1 s^-1 | 23.293 ± 0.020 10^-5 cm^2 V^-1 s^-1 | 6.627 ± 0.102 10^-5 cm^2 V^-1 s^-1 | 0.82 ± 0.01 | -2.66 ± 0.03 | 0.85 ± 0.02 | -1.58 ± 0.04 | 1.53 ± 0.01 | -2.80 ± 0.01 | c1ccc2c(c1)OCC(C1=NCCN1)O2 (stereo not drawn) [Idazoxan, idazoxan hydrochloride] | pKa experimental [3, 6]: 9.04
22.471 ± 0.004 10^-5 cm^2 V^-1 s^-1 | 12.234 ± 0.109 10^-5 cm^2 V^-1 s^-1 | 0.000 ± 0.000 10^-5 cm^2 V^-1 s^-1 | 2.48 ± 0.03 | -4.24 ± 0.07 | 3.91 ± 0.05 | -4.82 ± 0.08 | 3.92 ± 0.06 | -4.83 ± 0.11 | CN1CCN2c3ccccc3Cc3ccccc3C2C1 (stereo not drawn) [Mianserin, mianserin hydrochloride] | pKa experimental ([3]; potentiometric, ref 12 (Supplement reference list)): 7.40
